Test results taken from USRE40086E1, “Method for treating bacterial infection with novel 7-substituted-9-substituted amino 6-demethyl-6-deoxytetracyclines” (Wyeth Holdings Corporation, priority 1991, dated 2008).

Columns and labels:
[1] = tested on: E. coli UBMS 88-1 (tetB); test: MIC, agar dilution; type: cell-based; settings: E. coli UBMS 88-1 TetB; Table IA; unit assumed
[2] = tested on: S. aureus Smith (Sensitive); test: MIC, agar dilution; type: cell-based; settings: S. aureus SMITH (MP); Table IA; unit assumed
[3] = tested on: S. aureus UBMS 90-3 (Sensitive); test: MIC, agar dilution; type: cell-based; settings: S. aureus UBMS 90-3; Table IA; unit assumed
[4] = tested on: S. mariescens FDOR 8733; test: MIC, agar dilution (Table IA); type: cell-based; settings: unit assumed
[5] = tested on: E. coli J3272 TetC; test: MIC, agar dilution (Table IA); type: cell-based; settings: unit assumed
[6] = tested on: E. coli UBMS 90-5; test: MIC, agar dilution (Table IA); type: cell-based; settings: unit assumed
[7] = tested on: E. coli J3272 TetD; test: MIC, agar dilution (Table IA); type: cell-based; settings: unit assumed
[8] = tested on: S. aureus ROSE (MP); test: MIC, agar dilution (Table IA); type: cell-based; settings: unit assumed
[9] = tested on: E. coli ATCC 25922; test: MIC, agar dilution; type: cell-based; settings: E. coli ATCC 25922; Table IA; unit assumed
[10] = tested on: E. coli MC4100 TetB; test: MIC, agar dilution (Table IA); type: cell-based; settings: unit assumed
[11] = tested on: S. haemolyticus AVAH 88-3; test: MIC, agar dilution; type: cell-based; settings: S. hemolyticus AVHAH 88-3; Table IA; unit assumed
[12] = tested on: S. aureus UBMS 88-5 (tetM); test: MIC, agar dilution; type: cell-based; settings: S. aureus UBMS 88-5 TetM; Table IA; unit assumed
[13] = tested on: S. aureus NEMC 8769/89-4; test: MIC, agar dilution (Table IA); type: cell-based; settings: unit assumed
[14] = tested on: S. aureus UBMS 90-2 (tetM); test: MIC, agar dilution; type: cell-based; settings: S. aureus UBMS 90-2 TetM; Table IA; unit assumed
[15] = tested on: S. aureus UBMS 88-4 (Sensitive); test: MIC, agar dilution; type: cell-based; settings: S. aureus UBMS 88-4; Table IA; unit assumed
[16] = tested on: E. coli UBMS 89-1 (tetM); test: MIC, agar dilution; type: cell-based; settings: E. coli UBMS 89-1 TetM; Table IA; unit assumed
[17] = tested on: E. coli BAJ9003; test: MIC, agar dilution (Table IA); type: cell-based; settings: unit assumed
[18] = tested on: S. aureus ATCC 29213 (Sensitive); test: MIC, agar dilution; type: cell-based; settings: S. aureus ATCC 29213; Table IA; unit assumed
[19] = tested on: E. coli UBMS 89-2 (Sensitive); test: MIC, agar dilution; type: cell-based; settings: E. coli UBMS 89-2 Tet Sens.; Table IA; unit assumed
[20] = tested on: E. faecalis ATCC 29212; test: MIC, agar dilution; type: cell-based; settings: E. faecalis ATCC 29212; Table IA; unit assumed
[21] = tested on: Ps. acruginosa ATCC 27853; test: MIC, agar dilution (Table IA); type: cell-based; settings: unit assumed
[22] = tested on: E. coli UBMS 90-4 (tetM); test: MIC, agar dilution; type: cell-based; settings: E. coli UBMS 90-4 TetM; Table IA; unit assumed
[23] = tested on: S. aureus IVES 1983 (meth. resistant); test: MIC, agar dilution; type: cell-based; settings: S. aureus IVES 1983; Table IA; unit assumed
[24] = tested on: S. aureus UBMS 88-7 (tetK); test: MIC, agar dilution; type: cell-based; settings: S. aureus UBMS 88-7 TetK; Table IA; unit assumed
[25] = tested on: S. aureus IVES 2943 (meth. resistant); test: MIC, agar dilution; type: cell-based; settings: S. aureus IVES 2943; Table IA; unit assumed
[26] = tested on: E. faecalis 12201; test: MIC, agar dilution; type: cell-based; settings: Enterococcus 12201; Table IA; unit assumed
[27] = tested on: X. maltophilia NEMC 87210; test: MIC, agar dilution (Table IA); type: cell-based; settings: unit assumed
[28] = tested on: E. coli J2175; test: MIC, agar dilution (Table IA); type: cell-based; settings: unit assumed
[29] = tested on: S. aureus UBMS 90-1 (tetM); test: MIC, agar dilution; type: cell-based; settings: S. aureus UBMS 90-1 TetM; Table IA; unit assumed
[30] = tested on: E. coli MC4100 Tet sens.; test: MIC, agar dilution (Table IA); type: cell-based; settings: unit assumed
[31] = tested on: E. coli #311 (MP); test: MIC, agar dilution (Table IA); type: cell-based; settings: unit assumed
[32] = tested on: E. coli PRP1 TetA; test: MIC, agar dilution (Table IA); type: cell-based; settings: unit assumed
[33] = tested on: TetM S30 extract, derivative of E. coli MRE600 containing the tetM determinant; test: E. coli in vitro transcription and protein translation, 35S-methionine incorporation (Table VIII)
[34] = tested on: S. aureus SMITH (sens); test: In vivo antibacterial evaluation, acute lethal infection in mice; settings: Oral
From the text: In Vivo Antibacterial Evaluation (Table VII)

[35] = tested on: E. coli J3272 Tet sens.; test: MIC, agar dilution (Table IA); type: cell-based; settings: unit assumed
[36] = tested on: Wild Type S30 extract, E. coli strain MRE600 (tetracycline sensitive); test: E. coli in vitro transcription and protein translation, 35S-methionine incorporation (Table VIII)

SMILES	Antibacterial activity (MIC) [1] [µg/mL]	Antibacterial activity (MIC) [2] [µg/mL]	Antibacterial activity (MIC) [3] [µg/mL]	Antibacterial activity (MIC) [4] [µg/mL]	Antibacterial activity (MIC) [5] [µg/mL]	Antibacterial activity (MIC) [6] [µg/mL]	Antibacterial activity (MIC) [7] [µg/mL]	Antibacterial activity (MIC) [8] [µg/mL]	Antibacterial activity (MIC) [9] [µg/mL]	Antibacterial activity (MIC) [10] [µg/mL]	Antibacterial activity (MIC) [11] [µg/mL]	Antibacterial activity (MIC) [12] [µg/mL]	Antibacterial activity (MIC) [13] [µg/mL]	Antibacterial activity (MIC) [14] [µg/mL]	Antibacterial activity (MIC) [15] [µg/mL]	Antibacterial activity (MIC) [16] [µg/mL]	Antibacterial activity (MIC) [17] [µg/mL]	Antibacterial activity (MIC) [18] [µg/mL]	Antibacterial activity (MIC) [19] [µg/mL]	Antibacterial activity (MIC) [20] [µg/mL]	also measured
CCCCN(C)CC(=O)Nc1cc(N(C)C)c2c(c1O)C(=O)C1=C(O)C3(O)C(=O)C(C(N)=O)=C(O)C(N(C)C)C3CC1C2.Cl.Cl (stereo not drawn) [CCC, [4S-(4alpha,12aalpha)]-9-[[(Butylmethylamino)acetyl]amino]-4,7-Bis(dimethylamino)-1,4,4a,5,5a,6,11,12a-octahydro-3,10-12,12a-tetrahydroxy-1,11-dioxo-2-naphthacenecarboxamide dihydrochloride]	1	0.5	0.25	16	1	2	0.5	2	1	2	0.5	0.5	0.12	0.25	0.5	0.25	0.12	0.5	2	0.12	Antibacterial activity (MIC) [21]: > 32 µg/mL; Antibacterial activity (MIC) [22]: 1 µg/mL; Antibacterial activity (MIC) [23]: 1 µg/mL; Antibacterial activity (MIC) [24]: 1 µg/mL; Antibacterial activity (MIC) [25]: 1 µg/mL; Antibacterial activity (MIC) [26]: 0.25 µg/mL; Antibacterial activity (MIC) [27]: 0.25 µg/mL; Antibacterial activity (MIC) [28]: 2 µg/mL; Antibacterial activity (MIC) [29]: 1 µg/mL; Antibacterial activity (MIC) [30]: 0.25 µg/mL; Antibacterial activity (MIC) [31]: 1 µg/mL; Antibacterial activity (MIC) [32]: 2 µg/mL
CCN(CC)CC(=O)Nc1cc(N(C)C)c2c(c1O)C(=O)C1=C(O)[C@]3(O)C(=O)C(C(N)=O)=C(O)[C@@H](N(C)C)C3CC1C2.Cl.Cl (stereo partly drawn) [RR, [4S-(4alpha,12aalpha))-9-([(Diethylamino)acetyl)amino]-4,7-Bis(dimethylamino)-1,4,4a,5,5a,6,11,12a-octahydro-3,10,12,12a-tetrahydroxy-1,11-dioxo-2-naphthacenecarboxamide dihydrochloride]	1	0.25	0.25	4	1	1	0.25	1	0.5	1	0.5	0.25	0.06	0.25	0.25	0.25	0.06	0.12	1	0.12	Antibacterial activity (MIC) [21]: 32 µg/mL; % INHIBITION TetM S30 ([33]; 0.06 mg/ml): 90%; % INHIBITION TetM S30 ([33]; 0.2 mg/ml): 97%; % INHIBITION TetM S30 ([33]; 1.0 mg/ml): 99%; Antibacterial activity (MIC) [22]: 0.5 µg/mL; ED50 [34]: 8 to 16 mg/kg; Antibacterial activity (MIC) [35]: 1 µg/mL; Antibacterial activity (MIC) [23]: 0.25 µg/mL; Antibacterial activity (MIC) [24]: 0.5 µg/mL; Antibacterial activity (MIC) [25]: 1 µg/mL; Antibacterial activity (MIC) [26]: 0.12 µg/mL; Antibacterial activity (MIC) [27]: 0.25 µg/mL; Antibacterial activity (MIC) [28]: 1 µg/mL; Antibacterial activity (MIC) [29]: 0.25 µg/mL; Antibacterial activity (MIC) [31]: 0.5 µg/mL; Antibacterial activity (MIC) [32]: 2 µg/mL; % INHIBITION Wild Type S30 ([36]; 0.06 mg/ml): 93%; % INHIBITION Wild Type S30 ([36]; 0.2 mg/ml): 97%; % INHIBITION Wild Type S30 ([36]; 1.0 mg/ml): 99%
CN(C)c1cc(NC(=O)Cn2ccnc2)c(O)c2c1CC1CC3[C@H](N(C)C)C(O)=C(C(N)=O)C(=O)[C@@]3(O)C(O)=C1C2=O.Cl.Cl (stereo partly drawn) [VV, [7S-(7alpha,10aalpha)]-N-[9-(Aminocarbonyl)-4,7-bis(dimethylamino)-5,5a,6,6a,7,10,10a,12-octahydro-1,8,10a,11-tetrahydroxy-10,12-dioxo-2-naphthacenyl]-1H-imidazole-1-acetamide dihydrochloride]	> 32	4	4	> 32	> 32	> 32	> 32	> 32	> 32	> 32	> 32	32	4	16	8	> 32	1	8	> 32	4	Antibacterial activity (MIC) [21]: > 32 µg/mL; % INHIBITION TetM S30 ([33]; 0.06 mg/ml): 79%; % INHIBITION TetM S30 ([33]; 0.2 mg/ml): 92%; % INHIBITION TetM S30 ([33]; 1.0 mg/ml): 98%; Antibacterial activity (MIC) [22]: > 32 µg/mL; Antibacterial activity (MIC) [35]: > 32 µg/mL; Antibacterial activity (MIC) [23]: > 32 µg/mL; Antibacterial activity (MIC) [24]: 32 µg/mL; Antibacterial activity (MIC) [25]: > 32 µg/mL; Antibacterial activity (MIC) [26]: 4 µg/mL; Antibacterial activity (MIC) [27]: > 32 µg/mL; Antibacterial activity (MIC) [28]: > 32 µg/mL; Antibacterial activity (MIC) [29]: 32 µg/mL; Antibacterial activity (MIC) [31]: > 32 µg/mL; Antibacterial activity (MIC) [32]: > 32 µg/mL; % INHIBITION Wild Type S30 ([36]; 0.06 mg/ml): 91%; % INHIBITION Wild Type S30 ([36]; 0.2 mg/ml): 93%; % INHIBITION Wild Type S30 ([36]; 1.0 mg/ml): 99%
